# Laboratory results as given in patent US11530206B2, “Phenylaminopyrimidine amide autophagy inhibitors and methods of use thereof” (Deciphera Pharmaceuticals, LLC, priority 2019, dated 2022).
# pIC50: −log10 of the molar value.
# Tests used:
# ULK kinase [1] = assay: pATG13 levels of mutant KRas MiaPaCa-2 cells after treatment with ULK inhibitors in combination with trametinib (ELISA); assay type: cell-based, human; details: MiaPaCa-2 pancreatic cancer cells, 250 nM trametinib, overnight, pS318-ATG13
# Procedure: (§1) MiaPaCa-2 human pancreatic cancer cells (10000 cells/well) were added to a 384-well tissue-culture treated plate in 50 μL of pre-warmed DMEM medium supplemented with 10% characterized fetal bovine serum (Invitrogen, Carlsbad, Calif.), 100 units/mL penicillin G, 100 µg/mL streptomycin, and 2.5% Horse Serum and allowed to grow overnight at 37° C., 5% CO2, and 95% humidity. The following day, 10 μL of media containing trametinib or DMSO as a control was added to wells. […] A dose response of a test compound (0.6 μL per well) was added. DMSO (0.6 μL) was added to control wells. The plate was briefly shaken to mix wells and then incubated at 37° C. overnight. The next day, the media was aspirated and cells were washed with Dulbecco's Phosphate Buffered Saline (Gibco). Cells were lysed using MPER lysis buffer (Pierce, Rockford, Ill.) containing Halt Phosphatase and Protease Inhibitors (Pierce, Rockford, Ill.) and Phosphatase inhibitor cocktail 2 (Sigma, St. Louis, Mo.) at 4° C. for 10 minutes with shaking.
# (§2) Plate wells were washed with ELISA wash buffer. Cell lysate was added to wells and incubated at room temperature for 2 hours. Plate wells were washed with ELISA wash buffer. […] Plate wells were washed with ELISA wash buffer. […] Plate wells were washed with ELISA wash buffer. […] The reaction was stopped with 2N Sulfuric Acid. The plate was analyzed at on a plate reader measuring absorbance at 450 nm and 540 nm (background). Signal was calculated by first subtracting the background absorbance at 540 nm from the absorbance at 450 nm for each well. Next, the background corrected absorbance at 450 nm from blank wells was subtracted from test wells. Data was compared to control wells to determine % ATG13 phosphorylation. GraphPad Prism was used to calculate IC50 values.
# ULK kinase [2] = assay: pATG13 levels of mutant KRas A549 cells after treatment with ULK inhibitors in combination with trametinib (ELISA); assay type: cell-based, human; details: A549 (KRAS mutant) lung cancer cells, 250 nM trametinib, overnight, pS318-ATG13
# Procedure: Cellular Inhibition of ULK Kinase Substrate ATG13 Protein pATG13 Levels of Mutant KRas A549 Cells after Treatment with ULK Inhibitors in Combination with Trametinib
# as §1, with “A549 (KRAS mutant)” for “MiaPaCa-2”, “lung” for “pancreatic”, “(6,000” for “(10000”, “G, and” for “G,”, “μg/mL streptomycin” for “µg/mL streptomycin, and 2.5% Horse Serum”
# as §2
# ULK1 kinase = molecular target: T1, ULK1 kinase (Homo sapiens, UniProt O75385, E37A/K38A); assay: Biochemical assay for ULK1.3 (coupled pyruvate kinase/lactate dehydrogenase assay, peptide substrate); details: 0.1 nM ULK1 (residues 1-283), 1 mM ATP
# T1 construct: purchased Beryllium
# T1 sequence (O75385 1-283 E37A/K38A): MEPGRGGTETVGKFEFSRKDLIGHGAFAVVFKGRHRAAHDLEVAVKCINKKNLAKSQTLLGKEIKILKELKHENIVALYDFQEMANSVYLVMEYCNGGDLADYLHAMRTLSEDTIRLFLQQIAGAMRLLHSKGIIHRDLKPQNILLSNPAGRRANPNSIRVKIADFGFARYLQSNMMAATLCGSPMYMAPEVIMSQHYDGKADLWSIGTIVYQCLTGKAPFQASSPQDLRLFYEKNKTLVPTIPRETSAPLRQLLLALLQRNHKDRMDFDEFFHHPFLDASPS
# Procedure: Biochemical Assay for ULK1.3 (SEQ. ID NO: 2)
# Inhibition of ULK1 was measured by adding serial diluted test compound (final assay concentration of 1% DMSO). A decrease in absorption at 340 nm was monitored continuously for 6 hours at 30° C. on a multi-mode microplate reader (BioTek). The reaction rate was calculated using the 2-3 h time frame. The reaction rate at each concentration of compound was converted to percent inhibition using controls (i.e. reaction with no test compound and reaction with a known inhibitor) and IC50 values were calculated using software routines in Prism (GraphPad software).
Compound,pIC50 (ULK kinase [1]),pIC50 (ULK kinase [2]),pIC50 (ULK1 kinase)
CN1CCN(c2ccc(Nc3ncc(Br)c(NCCCN4CCCOC4=O)n3)c(C3CC3)c2)CC1 [Example 40],7.00 to 8.00,7.00 to 8.00,7.60 to 9.00
CN1CCCN(c2ccc(Nc3ncc(C(F)(F)F)c(NCCCN4CCCCC4=O)n3)c(C3CC3)c2)CC1 [Example 24],,,7.60 to 9.00
CN1CCN(c2ccc(Nc3cc(NCCCN4CCOCCC4=O)c(Cl)cn3)c(C3CC3)c2)CC1 [Example 104],,,6.30 to 7.00
CN1CCN(c2ccc(Nc3cc(NCCCN4CCCCC4=O)c(C(F)(F)F)cn3)cc2)CC1 [Example 103],7.00 to 8.00,7.00 to 8.00,7.60 to 9.00
CCc1cc(N2CCN(C)CC2)ccc1Nc1ncc(C2CC2)c(NCCCN2CCCOC2=O)n1 [Example 45],,,6.30 to 7.00
CN(C)C1CN(c2ccc(Nc3ncc(C(F)(F)F)c(NCCCN4CCOCCC4=O)n3)c(C3CC3)c2)C1 [Example 136],,,7.60 to 9.00
CN1CCN(c2ccc(Nc3cc(NCCCN4CCOCCC4=O)c(C(F)(F)F)cn3)c(C3CC3)c2)CC1 [Example 101],< 6.22,6.22 to 6.52,7.60 to 9.00
CCc1cc(N2CCN(C)CC2)ccc1Nc1ncc(C(F)(F)F)c(NCCCN2CCOCC(C)(C)C2=O)n1 [Example 142],,,7.60 to 9.00
CCN1CCN(c2ccc(Nc3ncc(C(F)(F)F)c(NCCCN4CCCCC4=O)n3)c(C(C)C)c2)CC1 [Example 28],6.52 to 7.00,6.52 to 7.00,7.60 to 9.00
O=C1OCCCN1CCCNc1nc(Nc2ccc(N3CCN4CCC[C@@H]4C3)cc2C2CC2)ncc1C(F)(F)F [Example 42],7.00 to 8.00,7.00 to 8.00,7.60 to 9.00
CCc1cc(N2CC[C@H](N(C)C)C2)ccc1Nc1ncc(C(F)(F)F)c(NCCCN2CCOCCC2=O)n1 [Example 145],,,7.60 to 9.00
CCc1cc(N2CCCN(C)CC2)ccc1Nc1ncc(C(F)(F)F)c(NCCCN2CCCOCC2=O)n1 [Example 63],,,7.00 to 7.60
CN1CCN(c2ccc(Nc3ncc(Br)c(NCCCN4CCOCCC4=O)n3)c(C3CC3)c2)CC1 [Example 81],7.00 to 8.00,6.52 to 7.00,7.60 to 9.00
CCc1cc(C2CCN(C)CC2)ccc1Nc1ncc(C(F)(F)F)c(NCCCN2CCOCCC2=O)n1 [Example 146],,,7.00 to 7.60
CN1CCN(c2ccc(Nc3ncc(Cl)c(NCCCN4CCCCC4=O)n3)c(C3CC3)c2)CC1 [Example 27],6.52 to 7.00,6.52 to 7.00,7.00 to 7.60
CCc1cc(N2CC[C@@H](N(C)C)C2)ccc1Nc1ncc(C(F)(F)F)c(NCCCN2CCOCCC2=O)n1 [Example 144],,,7.60 to 9.00
CN1CCN(c2ccc(Nc3cc(NCCCN4CCCCC4=O)c(C(F)(F)F)cn3)c(C3CC3)c2)CC1 [Example 94],,,7.00 to 7.60
O=C1CCOCCN1CCCNc1nc(Nc2ccc(N3CCNCC3)cc2C2CC2)ncc1Cl [Example 89],,,6.30 to 7.00
CN(C)CC1CN(c2ccc(Nc3ncc(C(F)(F)F)c(NCCCN4CCOCCC4=O)n3)c(C3CC3)c2)C1 [Example 137],7.00 to 8.00,6.52 to 7.00,7.60 to 9.00
CN(C)CC1CN(c2ccc(Nc3ncc(C(F)(F)F)c(NCCCN4CCCCC4=O)n3)c(C3CC3)c2)C1 [Example 151],,,7.60 to 9.00
CCc1cc(N2CC3CCC(C2)N3C)ccc1Nc1ncc(C(F)(F)F)c(NCCCN2CCC(C)(C)OC2=O)n1 [Example 140],,,6.30 to 7.00
"CN1CCN(c2ccc(Nc3cc(NCCCN4CCCCC4=O)c(C(F)(F)F)cn3)nc2)CC1 [Example 97, 1-(3-((2-((5-(4-methylpiperazin-1-yl)pyridin-2-yl)amino)-5-(trifluoromethyl)pyridin-4-yl)amino)propyl)piperidin-2-one]",,,6.30 to 7.00

Compound,pIC50 (ULK kinase [1]),pIC50 (ULK kinase [2]),pIC50 (ULK1 kinase)
CN1CCN(c2ccc(Nc3cc(NCCCN4CCCOC4=O)c(C(F)(F)F)cn3)cc2)CC1 [Example 102],6.52 to 7.00,6.52 to 7.00,7.60 to 9.00
CCc1cc(C2CCN(C)C2)ccc1Nc1ncc(C(F)(F)F)c(NCCCN2CCOCCC2=O)n1 (stereo not shown) [Example 143],,,7.60 to 9.00
CCc1cc(N2CCN(C)CC2)ccc1Nc1ncc(Cl)c(NCCCN2CCCOC2=O)n1 [Example 43],,,7.00 to 7.60
CN1CCN(c2ccc(Nc3ncc(C(F)(F)F)c(NCCCN4CCCCCC4=O)n3)c(C3CC3)c2)CC1 [Example 38],,,7.60 to 9.00
"CC(=O)N1CCN(c2ccc(Nc3ncc(C(F)(F)F)c(NCCCN4CCCCC4=O)n3)c(C3CC3)c2)CC1 [Example 36, 1-(3-((2-((4-(4-acetylpiperazin-1-yl)-2-cyclopropylphenyl)amino)-5-(trifluoromethyl)pyrimidin-4-yl)amino)propyl)piperidin-2-one]",< 6.22,< 6.22,7.00 to 7.60
CN1CCN(c2ccc(Nc3ncc(Cl)c(NCCCN4CCOCCC4=O)n3)c(C3CC3)c2)CC1 [Example 82],6.52 to 7.00,6.52 to 7.00,7.00 to 7.60
CCc1cc(N2CCN(C)CC2)ncc1Nc1ncc(C(F)(F)F)c(NCCCN2CCCOCC2=O)n1 [Example 53],,,7.00 to 7.60
CCc1cc(N2CC(CN(C)C)C2)ccc1Nc1ncc(C(F)(F)F)c(NCCCN2CCOCCC2=O)n1 [Example 152],,,7.60 to 9.00
CCc1cc(N2CCN3CCC[C@H]3C2)ccc1Nc1ncc(C(F)(F)F)c(NCCCN2CCCOC2=O)n1 [Example 121],,,7.60 to 9.00
CN1CCN(c2ccc(Nc3cc(NCCCN4CCOCCC4=O)c(C(F)(F)F)cn3)cc2)CC1 [Example 110],7.00 to 8.00,6.52 to 7.00,7.60 to 9.00
CCc1cc(N2CCN(C)CC2)ccc1Nc1ncc(Cl)c(NCCCN2CCOCCC2=O)n1 [Example 80],6.52 to 7.00,< 6.22,7.00 to 7.60
CCN1CCN(c2ccc(Nc3ncc(Cl)c(NCCCN4CCCCC4=O)n3)c(C(C)C)c2)CC1 [Example 29],,,6.30 to 7.00
CC(C)c1cc(N2CCN(C)CC2)ccc1Nc1ncc(Br)c(NCCCN2CCCCC2=O)n1 [Example 15],,,7.00 to 7.60
CN1CCN(c2ccc(Nc3ncc(C(F)(F)F)c(NCCCN4CCOCCC4=O)n3)c(C(C)(C)O)c2)CC1 [Example 134],,,< 6.30
CN1C2CCC1CN(c1ccc(Nc3ncc(C(F)(F)F)c(NCCCN4CCOCCC4=O)n3)c(C3CC3)c1)C2 [Example 133],,,6.30 to 7.00
CCc1cc(N2CCN(C)CC2)ccc1Nc1ncc(C(F)(F)F)c(NCCCN2CC(C)(C)C2=O)n1 [Example 141],,,7.00 to 7.60
CC(C)c1cc(N2CCN(C)CC2)ccc1Nc1ncc(Br)c(NCCCN2CCCOCC2=O)n1 [Example 77],,,7.00 to 7.60
CCc1cc(N2CCN(C)CC2)ncc1Nc1ncc(C(F)(F)F)c(NCCCN2CCCOC2=O)n1 [Example 128],,,7.60 to 9.00
CCc1cc(N2CC3CCC(C2)N3C)ccc1Nc1ncc(C(F)(F)F)c(NCCCN2CCCOCC2=O)n1 [Example 138],,,6.30 to 7.00
CCc1cc(N2CCN(C)CC2)ccc1Nc1ncc(C2CC2)c(NCCCN2CCOCCC2=O)n1 [Example 83],,,< 6.30
CN1CCN(c2ccc(Nc3ncc(C(F)(F)F)c(NCCCN4CCCOC4=O)n3)c(C(C)(C)O)c2)CC1 [Example 135],,,6.30 to 7.00
CCc1cc(N2CC3CCC(C2)N3C)ccc1Nc1ncc(C(F)(F)F)c(NCCCN2CC(C)(C)C2=O)n1 [Example 139],,,< 6.30
